Results on six molecules are retold here after patent US5545642A, “Derivatives of 1-(2-fluorocyclopropyl)-quinolonecarboxylic acid and 1-(2-fluorocyclopropyl)-naphthridonecarboxylic acid” (Bayer Aktiengesellschaft, priority 1993, dated 1996).

Converted amounts (≈) assume the structure as drawn. Where two headings read alike, the source gives them in different places.

For one series, the system named is Escherichia coli Neumann. Nature of the series: MIC, agar serial dilution (Iso-Sensitest agar), Escherichia coli Neumann. Type of series: cell-based. Particulars: 37° C., about 20 hours. The protocol: (§1) The minimum inhibitory concentrations (MIC) were determined on Iso-Sensitest agar (Oxoid) using a serial dilution method. For each substance to be tested, a series of agar plates was prepared, which plates contained diminishing concentrations of the active compound produced in each case by a doubling dilution. The agar plates were inoculated using a Multipoint Inoculator (Denley). For the inoculation, overnight cultures of the pathogens were used which had been diluted beforehand such that each inoculation point contained approximately 10^4 colony-forming particles. The inoculated agar plates were incubated at 37° C. and the growth of organisms recorded after about 20 hours. The MIC value (μg/ml) indicates the lowest concentration of active compound at which no growth was visible to the naked eye. […] Example 8 from European Patent Application 520 277): […]

For the next series, the system named is Klebsiella sp. 8085. Kind of series: MIC, agar serial dilution (Iso-Sensitest agar), Klebsiella sp. 8085. Particulars: 37° C., about 20 hours. The class given is cell-based. The protocol:
as §1

Series [1] concerns Enterococcus faecalis 27101. Nature of the series: MIC, agar serial dilution (Iso-Sensitest agar), Enterococcus faecalis 27101. Type of series: cell-based. Particulars: 37° C., about 20 hours. The method, then: as §1
In a further series the test system is Morganella morganii 932. Kind of series: MIC, agar serial dilution (Iso-Sensitest agar), Morganella morganii 932. Type of series: cell-based. Particulars: 37° C., about 20 hours. The protocol: as §1
Another series has as its system Micrococcus luteus 9341. Nature of the series: MIC, agar serial dilution (Iso-Sensitest agar), Micrococcus luteus 9341. The class given is cell-based. Particulars: 37° C., about 20 hours. The protocol: as §1
Series [2] is described as follows: LD50 following intravenous administration to CFl mice (tolerance). Type of series: in vivo. Particulars: mouse, in vivo, iv. The protocol: (§2) The LD50 values listed in this table were determined following intravenous administration of the substances to CFl mice. The ID50 is understood to be the concentration of a substance at which the DNA synthesis in Chinese hamster ovary cells (CHO-KI) is inhibited by 50%. This value is determined following incubation of the corresponding substances in descending dilution steps for defined periods. For this purpose, the DNA synthesis in CHO-KI cells is determined in comparison to controls using fluorophotometric methods.

The nature of another series: in vitro. The class given is cell-based, Chinese hamster. Particulars: hamster, cho-k1 cells. The method, then: as §2
The test system of series [3] is Staphylococcus aureus ICB 25701. Nature of the series: MIC, agar serial dilution (Iso-Sensitest agar), Staphylococcus aureus ICB 25701. Particulars: about 20 hours. The class given is cell-based. The method, then: as §1
The test system of series [4] is Staphylococcus aureus 133. Kind of series: MIC, agar serial dilution (Iso-Sensitest agar), Staphylococcus aureus 133. Type of series: cell-based. Particulars: 37° C., about 20 hours. The protocol:
as §1

The next series has as its system Providencia sp. 12012. Kind of series: MIC, agar serial dilution (Iso-Sensitest agar), Providencia sp. 12012. Particulars: 37° C., about 20 hours. The class given is cell-based. The method, then:
as §1

The next series relates to CFl mice. Nature of the series: LD50 following intravenous administration to CFl mice (tolerance). The class given is in vivo. The protocol:
as §2

In series [5] the test system is Chinese hamster ovary cells (CHO-KI). Kind of series: in vitro. The class given is cell-based. Particulars: cho-k1 cells. The method, then: as §2
Where [6] appears, read: Escherichia coli, 20 h, read-out: MIC.
[7] abbreviates: Micrococcus luteus, 9341, 20 h, read-out: MIC.
Setting [8] is: ICB25701, 37° C., read-out: MIC.

`CN1CCC2=C(C1)CN(c1c(F)cc3c(=O)c(C(=O)O)cn([C@@H]4C[C@@H]4F)c3c1F)C2` (relative stereo) [Example 1, 6,8-difluoro-1-(cis-2-fluorocyclopropyl)-1,4-dihydro-7-(5-methyl-2,3,4,5,6,7-hexahydro-1H-pyrrolo[3,4-c]pyridin-2-yl)-4-oxo-3-quinolinecarboxylic acid]: the MIC in the series on Escherichia coli Neumann (setting [6]) was no more than 0.015 µg/mL; in the series on Klebsiella sp. 8085 (read-out: MIC), 0.06 µg/mL (≈ 0.143 µM); in series [1] (read-out: MIC), 0.06 µg/mL (≈ 0.143 µM); in the series with Morganella morganii 932 (read-out: MIC), 0.03 µg/mL (≈ 0.0715 µM); with Micrococcus luteus 9341 (setting [7]), 0.25 µg/mL (≈ 0.596 µM); in series [3] (setting [8]) it was 0.5 µg/mL (≈ 1.19 µM). Further, the MIC (in series [4] (read-out: MIC); with Providencia sp. 12012 (read-out: MIC)) was 0.06 µg/mL (≈ 0.143 µM) in each case. Also, the LD50 in [2] came to 150 mg/kg. This molecule also yielded an IC50 in the series “in vitro” of 35 µg/mL (≈ 83.5 µM).

Turning to `CN1CCC2=C(C1)CN(c1c(F)cc3c(=O)c(C(=O)O)cn([C@@H]4C[C@@H]4F)c3c1Cl)C2` (relative stereo) [Example 4, 8-chloro-6-fluoro-1-(cis-2-fluorocyclopropyl)-1,4-dihydro-7-(5-methyl-2,3,4,5,6,7-hexahydro-1H-pyrrolo[3,4-c]-pyridin-2-yl)-4-oxo-3-quinolinecarboxylic acid], the MIC is no more than 0.015 µg/mL with Escherichia coli Neumann (setting [6]); 0.06 µg/mL (≈ 0.138 µM) in the series on Klebsiella sp. 8085 (read-out: MIC); 0.06 µg/mL (≈ 0.138 µM) in series [1] (read-out: MIC); 0.06 µg/mL (≈ 0.138 µM) in the series on Morganella morganii 932 (read-out: MIC); 0.125 µg/mL (≈ 0.287 µM) in the series with Micrococcus luteus 9341 (setting [7]); 0.25 µg/mL (≈ 0.574 µM) in series [3] (setting [8]). Moreover, the minimum inhibitory concentration (MIC) in [4] (read-out: MIC) is no more than 0.015 µg/mL; in the series on Providencia sp. 12012 (read-out: MIC), 0.06 µg/mL (≈ 0.138 µM).

On to `CN1CCC2=C(C1)CN(c1c(F)cc3c(=O)c(C(=O)O)cn([C@@H]4C[C@@H]4F)c3c1F)C2` (single isomer, unassigned) [Example 2, (-)-6,8-difluoro-1-(cis-2-fluorocyclopropyl)-1,4-dihydro-7-(5-methyl-2,3,4,5,6,7-hexahydro-1H-pyrrolo[3,4-c]pyridin-2-yl)-4-oxo-3-quinolinecarboxylicacid], for which the MIC came to 0.03 µg/mL (≈ 0.0715 µM) with Escherichia coli Neumann (setting [6]); 0.06 µg/mL (≈ 0.143 µM) with Klebsiella sp. 8085 (read-out: MIC); 0.06 µg/mL (≈ 0.143 µM) in series [1] (read-out: MIC); 0.06 µg/mL (≈ 0.143 µM) with Morganella morganii 932 (read-out: MIC); 0.25 µg/mL (≈ 0.596 µM) in the series on Micrococcus luteus 9341 (setting [7]); 0.5 µg/mL (≈ 1.19 µM) in series [3] (setting [8]). For the same molecule, the MIC (in [4] (read-out: MIC); in the series on Providencia sp. 12012 (read-out: MIC)) was 0.06 µg/mL (≈ 0.143 µM) each time. This molecule also returned an LD50 in the series with CFl mice of 200 mg/kg. In the series “in vitro”, this molecule returned an IC50 of 40 µg/mL (≈ 95.4 µM).

As to `CN1CCC2=C(C1)CN(c1c(F)cc3c(=O)c(C(=O)O)cn([C@@H]4C[C@@H]4F)c3c1F)C2` (single isomer, unassigned) [Example 3, (+)-6,8-difluoro-1-(cis-2-fluorocyclopropyl)-1,4-dihydro-7-(5-methyl-2,3,4,5,6,7-hexahydro-1H-pyrrolo[3,4-c]pyridin-2-yl)-4-oxo-3-quinolinecarboxylicacid], the MIC is no more than 0.015 µg/mL in the series on Escherichia coli Neumann; 0.06 µg/mL (≈ 0.143 µM) in the series on Klebsiella sp. 8085; 0.06 µg/mL (≈ 0.143 µM) in series [1]; 0.06 µg/mL (≈ 0.143 µM) against Morganella morganii 932; 0.125 µg/mL (≈ 0.298 µM) against Micrococcus luteus 9341; 0.5 µg/mL (≈ 1.19 µM) in series [3] (37° C.). In addition, the MIC (in [4]; with Providencia sp. 12012) was 0.06 µg/mL (≈ 0.143 µM) each time. The LD50 in the series on CFl mice is recorded as 50 mg/kg. Also, in series [5], the “ID50 (concentration at which DNA synthesis is inhibited by 50%)” value stood at 40 µg/mL (≈ 95.4 µM).

With `CN1CCC2=C(C1)CN(c1c(F)cc3c(=O)c(C(=O)O)cn(C4CC4)c3c1F)C2.Cl` [Ref. 1, 1-cyclopropyl-6,8-difluoro-1,4-dihydro-7-(5-methyl-2,3,4,5,6,7-hexahydro-1H-pyrrolo[3,4-c]pyridin-2-yl)-4-oxo-3-quinolinecarboxylic acid hydrochloride, reference compound], the MIC in the series on Escherichia coli Neumann (setting [6]) was no more than 0.015 µg/mL; with Klebsiella sp. 8085 (read-out: MIC) it was 0.06 µg/mL; in series [1] (read-out: MIC) it was 0.125 µg/mL; in the series with Morganella morganii 932 (read-out: MIC) it was 0.03 µg/mL; with Micrococcus luteus 9341 (setting [7]) it was 0.5 µg/mL; in series [3] (setting [8]), 1 µg/mL. The values for the MIC (in series [4] (read-out: MIC); in the series on Providencia sp. 12012 (read-out: MIC)) were 0.6 µg/mL and 0.125 µg/mL, respectively. Moreover, the LD50 in [2] came out at 50 mg/kg. In addition, in “in vitro”, inhibition was half-maximal at 1 µg/mL (IC50).

For `CN1CCC2=C(C1)CN(c1c(F)cc3c(=O)c(C(=O)O)cn(C4CC4)c3c1Cl)C2` [Ref. 2, 8-chloro-1-cyclopropyl-6-fluoro-1,4-dihydro-7-(5-methyl-2,3,4,5,6,7-hexahydro-1H-pyrrolo[3,4-c]pyridin-2-yl)-4-oxo-3-quino-1-linecarboxylic acid, reference compound], the MIC in the series with Escherichia coli Neumann (setting [6]) turned out to be 0.03 µg/mL (≈ 0.0718 µM); in the series on Klebsiella sp. 8085 (read-out: MIC) it was 0.06 µg/mL (≈ 0.144 µM); in series [1] (read-out: MIC), 0.06 µg/mL (≈ 0.144 µM); in the series on Morganella morganii 932 (read-out: MIC) it was 0.06 µg/mL (≈ 0.144 µM); in the series on Micrococcus luteus 9341 (setting [7]), 0.25 µg/mL (≈ 0.598 µM); in series [3] (setting [8]) it was 0.5 µg/mL (≈ 1.2 µM). Further, the MIC in [4] (read-out: MIC) came out at 0.03 µg/mL (≈ 0.0718 µM); with Providencia sp. 12012 (read-out: MIC) it was 0.125 µg/mL (≈ 0.299 µM). For the same molecule, the LD50 in series [2] worked out at 50 mg/kg. Moreover, 16 µg/mL (≈ 38.3 µM) corresponded to half-maximal inhibition in the series “in vitro” (IC50).
